{"source": "ChEMBL document CHEMBL4311943", "about": "“3-[(1S,2S,3R)-2,3-Difluoro-1-hydroxy-7-methylsulfonylindan-4-yl]oxy-5-fluorobenzonitrile (PT2977), a Hypoxia-Inducible Factor 2α (HIF-2α) Inhibitor for the Treatment of Clear Cell Renal Cell Carcinoma” (J Med Chem, 2019)", "key": {"Homo sapiens [1]": {"species": "Homo sapiens", "experiment": "Activity at human BB2 receptor at 10 uM"}, "[2]": {"target": "Beta-1 adrenergic receptor (Homo sapiens) (UniProt P08588)", "experiment": "Activity at human beta1 receptor at 10 uM"}, "[3]": {"target": "Tyrosine-protein phosphatase non-receptor type 2 (Homo sapiens) (UniProt P17706)", "experiment": "Activity at human TCPTP at 10 uM"}, "[4]": {"target": "Prostaglandin F2-alpha receptor (Homo sapiens) (UniProt P43088)", "sequence (P43088 whole entry)": "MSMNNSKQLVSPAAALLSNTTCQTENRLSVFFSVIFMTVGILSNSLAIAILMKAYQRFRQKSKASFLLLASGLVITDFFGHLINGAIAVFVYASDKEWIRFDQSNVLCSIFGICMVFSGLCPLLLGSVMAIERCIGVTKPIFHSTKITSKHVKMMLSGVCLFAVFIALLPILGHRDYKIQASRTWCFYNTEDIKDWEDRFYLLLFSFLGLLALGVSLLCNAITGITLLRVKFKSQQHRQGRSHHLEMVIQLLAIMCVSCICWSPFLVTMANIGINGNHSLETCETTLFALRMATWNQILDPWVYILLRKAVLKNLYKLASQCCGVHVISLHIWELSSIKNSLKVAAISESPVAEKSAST", "experiment": "Activity at human Prostanoid FP receptor at 10 uM"}, "UGT2B17": {"target": "T1, UGT2B17 (Homo sapiens, UniProt O75795)", "T1 sequence (O75795 whole entry)": "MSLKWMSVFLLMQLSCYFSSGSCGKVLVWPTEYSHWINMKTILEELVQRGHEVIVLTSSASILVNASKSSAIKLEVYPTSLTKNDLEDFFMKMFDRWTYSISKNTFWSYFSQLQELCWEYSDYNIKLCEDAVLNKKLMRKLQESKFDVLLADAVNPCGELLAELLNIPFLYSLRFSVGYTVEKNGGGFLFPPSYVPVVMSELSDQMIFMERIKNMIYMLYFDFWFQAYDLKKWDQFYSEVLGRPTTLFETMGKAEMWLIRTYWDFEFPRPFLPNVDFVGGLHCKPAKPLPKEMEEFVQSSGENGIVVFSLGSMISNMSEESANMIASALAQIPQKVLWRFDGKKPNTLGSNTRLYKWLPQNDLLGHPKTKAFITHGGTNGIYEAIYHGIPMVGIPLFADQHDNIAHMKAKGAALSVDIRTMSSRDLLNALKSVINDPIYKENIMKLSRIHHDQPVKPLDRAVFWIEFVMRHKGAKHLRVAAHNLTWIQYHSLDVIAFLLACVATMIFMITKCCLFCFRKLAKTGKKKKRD", "experiment": "Substrate activity at UGT2B17 in human intestinal microsomes assessed as enzyme-mediated glucuronidation by measuring Km at 2 to 1000 uM preincubated for 5 mins followed by UDPGA addition and measured after 60 mins by LC-MS/MS analysis", "type": "ADME, Intestine"}, "[5]": {"experiment": "Drug level in plasma of SCID Beige mouse xenografted with human 786-O cells at 3 mg/kg, po administered twice daily via gavage for 3 days measured 12 hrs post-last dose", "type": "ADME, organism-based"}, "[6]": {"experiment": "Plasma concentration in patient with advanced solid tumor at 40 mg, po administered once daily measured on day 15 after 24 hrs", "type": "ADME, organism-based", "conditions": "human"}, "[7]": {"target": "Adenosine receptor A3 (Homo sapiens) (UniProt P0DMS8)", "experiment": "Activity at human adenosine A3 receptor at 10 uM"}, "[8]": {"target": "Protein kinase C beta type (Homo sapiens) (UniProt P05771)", "sequence (P05771 2-671 limits assumed)": "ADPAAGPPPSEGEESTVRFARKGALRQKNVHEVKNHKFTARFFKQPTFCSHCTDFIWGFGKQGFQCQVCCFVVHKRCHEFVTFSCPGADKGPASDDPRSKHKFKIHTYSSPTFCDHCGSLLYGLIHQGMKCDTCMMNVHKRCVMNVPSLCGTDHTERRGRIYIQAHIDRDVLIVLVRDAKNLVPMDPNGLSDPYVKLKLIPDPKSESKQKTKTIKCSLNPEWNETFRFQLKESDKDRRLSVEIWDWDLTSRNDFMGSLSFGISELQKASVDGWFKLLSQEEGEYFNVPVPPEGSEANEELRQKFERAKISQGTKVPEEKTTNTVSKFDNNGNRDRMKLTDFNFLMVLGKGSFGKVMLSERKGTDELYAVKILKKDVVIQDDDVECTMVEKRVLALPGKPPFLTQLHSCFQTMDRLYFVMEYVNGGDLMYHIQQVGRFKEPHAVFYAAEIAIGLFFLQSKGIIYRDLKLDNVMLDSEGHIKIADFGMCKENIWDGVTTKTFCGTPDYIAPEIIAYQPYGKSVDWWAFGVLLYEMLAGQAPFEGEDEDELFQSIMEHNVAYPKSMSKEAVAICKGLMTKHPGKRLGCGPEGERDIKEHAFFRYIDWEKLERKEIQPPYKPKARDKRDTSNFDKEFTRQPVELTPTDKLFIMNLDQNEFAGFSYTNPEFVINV", "experiment": "Activity at human PKCbeta1 at 10 uM"}, "[9]": {"experiment": "Dose normalized AUClast in Sprague-Dawley rat at 10 mg/kg, po administered via gavage by UPLC-MS analysis", "type": "ADME, organism-based", "conditions": "in vivo"}, "Cytochrome P450 2C8": {"target": "Cytochrome P450 2C8 (Homo sapiens, UniProt P10632)", "experiment": "Inhibition of CYP2C8 in human liver microsomes up to 50 uM using amodiaquine as substrate measured after 10 mins in presence of NADPH by LC-MS/MS analysis", "type": "ADME"}, "[10]": {"target": "Protein kinase C delta type (Homo sapiens) (UniProt Q05655)", "experiment": "Activity at human PKCdelta at 10 uM"}, "[11]": {"experiment": "Clearance in Sprague-Dawley rat at 1 mg/kg, iv by UPLC-MS analysis", "type": "ADME, organism-based", "conditions": "in vivo"}, "[12]": {"experiment": "Dose normalized AUClast in monkey at 5 mg/kg, po administered via gavage by UPLC-MS analysis", "type": "ADME, organism-based, Macaca mulatta", "conditions": "rhesus monkey, in vivo"}, "[13]": {"target": "Oxytocin receptor (Homo sapiens) (UniProt P30559)", "experiment": "Activity at human oxytocin receptor at 10 uM"}, "[14]": {"target": "Tyrosine-protein phosphatase non-receptor type 1 (Homo sapiens) (UniProt P18031)", "experiment": "Activity at human PTP1B at 10 uM"}, "[15]": {"target": "Voltage-gated inwardly rectifying potassium channel KCNH2 (Homo sapiens, UniProt Q12809)", "sequence (Q12809 whole entry)": "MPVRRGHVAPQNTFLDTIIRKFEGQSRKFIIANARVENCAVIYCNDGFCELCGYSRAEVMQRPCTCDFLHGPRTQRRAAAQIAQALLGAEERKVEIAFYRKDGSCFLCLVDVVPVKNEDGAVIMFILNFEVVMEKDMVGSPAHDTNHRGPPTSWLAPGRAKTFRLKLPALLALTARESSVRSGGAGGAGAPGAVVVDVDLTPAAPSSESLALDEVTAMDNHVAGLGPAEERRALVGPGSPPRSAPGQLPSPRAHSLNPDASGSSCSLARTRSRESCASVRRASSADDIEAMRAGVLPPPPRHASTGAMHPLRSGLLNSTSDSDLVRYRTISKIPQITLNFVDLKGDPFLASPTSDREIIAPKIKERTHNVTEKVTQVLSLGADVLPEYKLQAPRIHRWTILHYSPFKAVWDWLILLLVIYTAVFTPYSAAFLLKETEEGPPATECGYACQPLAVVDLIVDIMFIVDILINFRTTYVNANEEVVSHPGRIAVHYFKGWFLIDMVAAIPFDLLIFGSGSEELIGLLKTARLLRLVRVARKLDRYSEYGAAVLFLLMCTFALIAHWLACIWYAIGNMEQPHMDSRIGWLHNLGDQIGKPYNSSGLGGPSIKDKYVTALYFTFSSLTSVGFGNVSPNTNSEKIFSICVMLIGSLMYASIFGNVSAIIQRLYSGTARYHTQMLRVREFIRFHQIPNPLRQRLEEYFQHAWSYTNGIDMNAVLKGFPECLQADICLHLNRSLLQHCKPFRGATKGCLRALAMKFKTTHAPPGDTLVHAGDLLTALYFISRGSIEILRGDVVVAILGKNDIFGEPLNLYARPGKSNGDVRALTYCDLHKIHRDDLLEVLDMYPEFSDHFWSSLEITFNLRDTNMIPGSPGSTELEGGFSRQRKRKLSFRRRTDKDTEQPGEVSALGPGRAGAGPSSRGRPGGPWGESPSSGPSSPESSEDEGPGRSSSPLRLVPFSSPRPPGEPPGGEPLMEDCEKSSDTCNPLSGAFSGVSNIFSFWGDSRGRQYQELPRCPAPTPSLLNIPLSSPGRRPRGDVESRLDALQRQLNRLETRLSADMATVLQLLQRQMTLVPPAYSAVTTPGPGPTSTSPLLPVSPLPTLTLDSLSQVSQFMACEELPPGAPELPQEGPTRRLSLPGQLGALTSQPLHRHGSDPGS", "experiment": "Inhibition of human ERG expressed in mammalian expression system by Q-patch clamp electrophysiology method"}, "[16]": {"target": "Alpha-2A adrenergic receptor (Homo sapiens) (UniProt P08913)", "sequence (P08913 whole entry)": "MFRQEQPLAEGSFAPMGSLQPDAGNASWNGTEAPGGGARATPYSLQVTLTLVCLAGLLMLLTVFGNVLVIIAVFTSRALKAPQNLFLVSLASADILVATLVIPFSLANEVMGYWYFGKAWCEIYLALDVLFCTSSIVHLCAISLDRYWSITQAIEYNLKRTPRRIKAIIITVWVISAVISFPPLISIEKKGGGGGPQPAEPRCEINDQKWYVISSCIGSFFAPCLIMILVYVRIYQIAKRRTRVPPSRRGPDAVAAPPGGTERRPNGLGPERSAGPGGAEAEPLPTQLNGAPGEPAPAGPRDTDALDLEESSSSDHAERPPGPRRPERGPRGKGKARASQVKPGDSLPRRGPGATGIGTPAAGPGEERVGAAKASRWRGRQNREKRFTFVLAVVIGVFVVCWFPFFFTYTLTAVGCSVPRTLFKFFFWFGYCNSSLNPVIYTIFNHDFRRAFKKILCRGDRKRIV", "experiment": "Activity at human alpha2A receptor at 10 uM"}, "[17]": {"target": "5'-AMP-activated protein kinase catalytic subunit alpha-1 (Homo sapiens) (UniProt Q13131)", "sequence (Q13131 whole entry, looked up)": "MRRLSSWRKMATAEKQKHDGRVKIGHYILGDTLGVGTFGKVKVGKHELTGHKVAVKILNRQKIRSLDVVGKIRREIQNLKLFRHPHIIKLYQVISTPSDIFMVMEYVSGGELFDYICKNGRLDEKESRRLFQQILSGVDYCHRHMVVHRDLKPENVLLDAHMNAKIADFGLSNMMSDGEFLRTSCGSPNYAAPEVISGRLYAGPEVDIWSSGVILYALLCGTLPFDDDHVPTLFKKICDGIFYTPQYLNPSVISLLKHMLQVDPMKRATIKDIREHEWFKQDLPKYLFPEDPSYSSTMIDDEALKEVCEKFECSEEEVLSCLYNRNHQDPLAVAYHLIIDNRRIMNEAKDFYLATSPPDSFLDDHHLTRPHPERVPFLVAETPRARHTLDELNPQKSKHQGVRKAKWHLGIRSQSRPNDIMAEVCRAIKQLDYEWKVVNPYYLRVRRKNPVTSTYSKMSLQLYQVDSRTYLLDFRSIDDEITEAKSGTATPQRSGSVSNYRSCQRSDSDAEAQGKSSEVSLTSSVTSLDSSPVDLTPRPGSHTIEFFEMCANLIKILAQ", "experiment": "Activity at human AMPKalpha1 at 10 uM"}, "[18]": {"target": "Endothelin-1 receptor (Homo sapiens) (UniProt P25101)", "experiment": "Activity at human ETA receptor at 10 uM"}, "[19]": {"target": "Cyclin-dependent kinase 5/CDK5 activator 1 (Homo sapiens) (UniProt Q00535+Q15078)", "experiment": "Activity at human CDK5/p35 at 10 uM", "type": "protein-complex assay"}, "[20]": {"target": "Potassium voltage-gated channel subfamily A member 5 (Homo sapiens) (UniProt P22460)", "experiment": "Activity at human Kv1.5 at 10 uM"}, "Homo sapiens [21]": {"species": "Homo sapiens", "experiment": "Activity at human PKA at 10 uM"}, "[22]": {"target": "Protein kinase C beta type (Homo sapiens) (UniProt P05771)", "experiment": "Activity at human PKCbeta2 at 10 uM"}, "Cytochrome P450 1A2": {"target": "Cytochrome P450 1A2 (Homo sapiens, UniProt P05177)", "experiment": "Inhibition of CYP1A2 in human liver microsomes up to 50 uM using phenacetin as substrate measured after 10 mins in presence of NADPH by LC-MS/MS analysis", "type": "ADME"}, "[23]": {"target": "Hydroxycarboxylic acid receptor 2 (Homo sapiens) (UniProt Q8TDS4)", "experiment": "Activity at human GPR109A receptor at 10 uM"}, "[24]": {"target": "Prostaglandin E2 receptor EP2 subtype (Homo sapiens) (UniProt P43116)", "sequence (P43116 whole entry)": "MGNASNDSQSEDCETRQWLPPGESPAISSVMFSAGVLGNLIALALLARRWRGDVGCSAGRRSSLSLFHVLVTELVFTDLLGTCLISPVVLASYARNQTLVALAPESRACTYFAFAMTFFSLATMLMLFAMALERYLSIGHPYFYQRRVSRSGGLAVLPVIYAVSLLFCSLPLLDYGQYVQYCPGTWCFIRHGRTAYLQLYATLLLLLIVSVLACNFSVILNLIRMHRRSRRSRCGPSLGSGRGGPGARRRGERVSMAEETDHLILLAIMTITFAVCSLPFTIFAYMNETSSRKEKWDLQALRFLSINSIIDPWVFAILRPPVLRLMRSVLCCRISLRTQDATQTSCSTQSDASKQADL", "experiment": "Activity at human Prostanoid EP2 receptor at 10 uM"}, "[25]": {"target": "Neuromedin-U receptor 1 (Homo sapiens) (UniProt Q9HB89)", "experiment": "Activity at human NMU1 receptor at 10 uM"}, "[26]": {"target": "Thyrotropin receptor (Homo sapiens) (UniProt P16473)", "experiment": "Activity at human TSH at 10 uM"}, "Homo sapiens [27]": {"species": "Homo sapiens", "experiment": "Activity at human Proteinase activated receptor at 10 uM"}, "[28]": {"target": "Neuropeptide Y receptor type 2 (Homo sapiens) (UniProt P49146)", "experiment": "Activity at human NPY2 receptor at 10 uM"}, "[29]": {"target": "Neurotensin receptor type 1 (Homo sapiens) (UniProt P30989)", "experiment": "Activity at human NTR1 receptor at 10 uM"}, "[30]": {"target": "Mu-type opioid receptor (Homo sapiens) (UniProt P35372)", "experiment": "Activity at human mu opioid receptor at 10 uM"}, "[31]": {"experiment": "Half life in Sprague-Dawley rat at 1 mg/kg, iv by UPLC-MS analysis", "type": "ADME, organism-based", "conditions": "in vivo"}, "[32]": {"target": "Insulin receptor (Homo sapiens) (UniProt P06213)", "sequence (P06213 28-758 limits assumed)": "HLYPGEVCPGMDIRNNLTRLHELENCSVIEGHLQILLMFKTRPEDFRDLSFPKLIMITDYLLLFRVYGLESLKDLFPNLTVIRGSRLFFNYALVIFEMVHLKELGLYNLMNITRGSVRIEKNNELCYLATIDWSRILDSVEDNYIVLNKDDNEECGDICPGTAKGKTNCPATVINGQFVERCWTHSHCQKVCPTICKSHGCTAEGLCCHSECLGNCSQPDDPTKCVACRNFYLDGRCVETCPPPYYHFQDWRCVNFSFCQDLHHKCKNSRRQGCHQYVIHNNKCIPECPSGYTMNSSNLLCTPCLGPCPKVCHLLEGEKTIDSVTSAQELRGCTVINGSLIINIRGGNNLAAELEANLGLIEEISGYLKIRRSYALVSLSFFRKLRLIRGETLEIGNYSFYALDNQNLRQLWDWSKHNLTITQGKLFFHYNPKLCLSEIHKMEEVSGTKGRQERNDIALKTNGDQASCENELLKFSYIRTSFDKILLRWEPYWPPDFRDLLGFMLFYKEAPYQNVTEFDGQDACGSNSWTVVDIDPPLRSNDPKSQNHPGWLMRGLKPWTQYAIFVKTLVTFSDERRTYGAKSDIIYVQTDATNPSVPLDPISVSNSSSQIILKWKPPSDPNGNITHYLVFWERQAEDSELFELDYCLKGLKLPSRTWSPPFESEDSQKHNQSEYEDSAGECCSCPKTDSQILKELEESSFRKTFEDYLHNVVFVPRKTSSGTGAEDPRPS", "sequence (P06213 763-1382 limits assumed)": "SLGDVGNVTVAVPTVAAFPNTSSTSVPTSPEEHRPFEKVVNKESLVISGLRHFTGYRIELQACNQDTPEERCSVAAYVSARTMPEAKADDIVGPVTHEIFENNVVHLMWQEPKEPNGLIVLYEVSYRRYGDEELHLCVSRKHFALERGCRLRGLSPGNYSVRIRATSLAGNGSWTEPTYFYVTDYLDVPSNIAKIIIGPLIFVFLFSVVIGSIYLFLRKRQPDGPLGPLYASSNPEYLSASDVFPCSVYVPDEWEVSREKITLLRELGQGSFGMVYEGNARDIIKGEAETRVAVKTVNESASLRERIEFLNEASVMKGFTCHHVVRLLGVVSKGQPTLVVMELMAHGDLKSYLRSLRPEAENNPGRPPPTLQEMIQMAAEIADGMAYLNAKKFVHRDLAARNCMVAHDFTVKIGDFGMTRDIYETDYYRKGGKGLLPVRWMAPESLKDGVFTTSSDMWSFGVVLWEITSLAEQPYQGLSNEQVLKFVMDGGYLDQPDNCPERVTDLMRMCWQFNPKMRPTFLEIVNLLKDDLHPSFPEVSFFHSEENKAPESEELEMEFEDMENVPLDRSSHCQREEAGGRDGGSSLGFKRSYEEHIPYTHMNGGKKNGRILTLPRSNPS", "experiment": "Activity at human IR at 10 uM"}, "[33]": {"target": "Histamine H3 receptor (Homo sapiens) (UniProt Q9Y5N1)", "experiment": "Activity at human H3 receptor at 10 uM"}, "[34]": {"experiment": "Cmax in patient with advanced solid tumor at 120 mg, po administered once daily measured on day 15", "type": "ADME, organism-based", "parameters": "dose 120 mg, route oral", "conditions": "human, in vivo"}, "[35]": {"target": "Protein kinase C iota type (Homo sapiens) (UniProt P41743)", "experiment": "Activity at human PKCiota at 10 uM"}}, "note": "pIC50: −log10 of the molar value. Calls of active or inactive are those of the source. No cut-off for these calls is given here.", "data": [{"smiles": "CS(=O)(=O)c1ccc(Oc2cc(F)cc(C#N)c2)c2c1[C@H](O)[C@H](F)[C@@H]2F", "note": "[BELZUTIFAN]", "values": [{"measurement": "Activity", "setting": "Homo sapiens [1]", "result": "inactive"}, {"measurement": "Activity", "setting": "[2]", "result": "inactive"}, {"measurement": "Activity", "setting": "[3]", "result": "inactive"}, {"measurement": "Activity", "setting": "[4]", "result": "inactive"}, {"measurement": "Km at 1 h, up to 1000 µM", "setting": "UGT2B17", "result": 15, "unit": "µM"}, {"measurement": "concentration at 12 h", "setting": "[5]", "result": 59, "unit": "ng/mL"}, {"measurement": "concentration at 24 h", "setting": "[6]", "result": 190, "unit": "ng/mL"}, {"measurement": "Activity", "setting": "[7]", "result": "inactive"}, {"measurement": "Activity", "setting": "[8]", "result": "inactive"}, {"measurement": "AUClast/dose", "setting": "[9]", "result": 13, "unit": "µM·h"}, {"measurement": "inhibition (INH)", "setting": "Cytochrome P450 2C8", "result": "Not Active"}, {"measurement": "Activity", "setting": "[10]", "result": "inactive"}, {"measurement": "clearance", "setting": "[11]", "result": 19, "unit": "mL/min/kg"}, {"measurement": "AUClast/dose", "setting": "[12]", "result": 31, "unit": "µM·h"}, {"measurement": "Activity", "setting": "[13]", "result": "inactive"}, {"measurement": "Activity", "setting": "[14]", "result": "inactive"}, {"measurement": "pIC50", "setting": "[15]", "result": "< 4.30"}, {"measurement": "Activity", "setting": "[16]", "result": "inactive"}, {"measurement": "Activity", "setting": "[17]", "result": "inactive"}, {"measurement": "Activity", "setting": "[18]", "result": "inactive"}, {"measurement": "Activity", "setting": "[19]", "result": "inactive"}, {"measurement": "Activity", "setting": "[20]", "result": "inactive"}, {"measurement": "Activity", "setting": "Homo sapiens [21]", "result": "inactive"}, {"measurement": "Activity", "setting": "[22]", "result": "inactive"}, {"measurement": "inhibition (INH)", "setting": "Cytochrome P450 1A2", "result": "Not Active"}, {"measurement": "Activity", "setting": "[23]", "result": "inactive"}, {"measurement": "Activity", "setting": "[24]", "result": "inactive"}, {"measurement": "Activity", "setting": "[25]", "result": "inactive"}, {"measurement": "Activity", "setting": "[26]", "result": "inactive"}, {"measurement": "Activity", "setting": "Homo sapiens [27]", "result": "inactive"}, {"measurement": "Activity", "setting": "[28]", "result": "inactive"}, {"measurement": "Activity", "setting": "[29]", "result": "inactive"}, {"measurement": "Activity", "setting": "[30]", "result": "inactive"}, {"measurement": "half-life", "setting": "[31]", "result": 1.4, "unit": "h"}, {"measurement": "Activity", "setting": "[32]", "result": "inactive"}, {"measurement": "Activity", "setting": "[33]", "result": "inactive"}, {"measurement": "Cmax", "setting": "[34]", "result": 1800, "unit": "ng/mL"}, {"measurement": "Activity", "setting": "[35]", "result": "inactive"}]}]}
